Assay results as given in PubChem BioAssay AID1259407 (Chemical Carcinogenesis Research Information System (CCRIS), 2018).
Calls of active or inactive are those of the source. No rule for the calls is given here. Where a SMILES comes first, the peptide text is derived from it.

Tested on: CCRIS mutagenicity, Ames/micronucleus/aberration tests
Assay: CCRIS mutagenicity studies
[1] = Test System: AMES SALMONELLA TYPHIMURIUM, Strain/Indicator: TA100, Metabolic Activation: NONE, Method: STANDARD PLATE
[2] = Test System: AMES SALMONELLA TYPHIMURIUM, Strain/Indicator: TA1535, Metabolic Activation: HAMSTER, LIVER, S-9, AROCLOR 1254, Method: STANDARD PLATE
[3] = Test System: AMES SALMONELLA TYPHIMURIUM, Strain/Indicator: TA1535, Metabolic Activation: NONE, Method: STANDARD PLATE
[4] = Test System: AMES SALMONELLA TYPHIMURIUM, Strain/Indicator: TA98, Metabolic Activation: NONE, Method: STANDARD PLATE
[5] = Test System: AMES SALMONELLA TYPHIMURIUM, Strain/Indicator: TA98, Metabolic Activation: RAT, LIVER, S-9, AROCLOR 1254, Method: STANDARD PLATE
[6] = Test System: AMES SALMONELLA TYPHIMURIUM, Strain/Indicator: TA100, Metabolic Activation: RAT, LIVER, S-9, AROCLOR 1254, Method: STANDARD PLATE
[7] = Test System: AMES SALMONELLA TYPHIMURIUM, Strain/Indicator: TA1535, Metabolic Activation: RAT, LIVER, S-9, AROCLOR 1254, Method: STANDARD PLATE
[8] = Test System: AMES SALMONELLA TYPHIMURIUM, Strain/Indicator: TA1537, Metabolic Activation: NONE, Method: STANDARD PLATE
[9] = Test System: AMES SALMONELLA TYPHIMURIUM, Strain/Indicator: TA1537, Metabolic Activation: RAT, LIVER, S-9, AROCLOR 1254, Method: STANDARD PLATE

## O=[N+]([O-])c1cccc(S(=O)(=O)OC[C@H]2CO2)c1
[1]
  mutagenic call: active; positive

## O=C(Cl)c1ccccc1
Test System: AMES SALMONELLA TYPHIMURIUM, Strain/Indicator: TA98, Metabolic Activation: NONE, Method: 0-1000 UG/PLATE
  mutagenic call: active; positive
Test System: AMES SALMONELLA TYPHIMURIUM, Strain/Indicator: TA98, Metabolic Activation: RAT LIVER S-9, PCB, Method: PREINCUBATION
  mutagenic call: active; positive
Test System: AMES SALMONELLA TYPHIMURIUM, Strain/Indicator: TA100, Metabolic Activation: NONE, Method: PREINCUBATION
  mutagenic call: active; positive
[1]
  mutagenic call: active; positive
Test System: AMES SALMONELLA TYPHIMURIUM, Strain/Indicator: TA100, Metabolic Activation: RAT LIVER S-9, PCB, Method: PREINCUBATION
  mutagenic call: active; positive
Test System: AMES SALMONELLA TYPHIMURIUM, Strain/Indicator: TA104, Metabolic Activation: NONE, Method: PREINCUBATION
  mutagenic call: active; positive
Test System: AMES SALMONELLA TYPHIMURIUM, Strain/Indicator: TA104, Metabolic Activation: RAT LIVER S-9, PCB, Method: PREINCUBATION
  mutagenic call: active; positive
Test System: E.COLI, Strain/Indicator: WP2 UVRA, Metabolic Activation: NONE, Method: PREINCUBATION
  mutagenic call: active; positive
Test System: E.COLI, Strain/Indicator: WP2 UVRA, Metabolic Activation: RAT LIVER S-9, PCB, Method: PREINCUBATION
  mutagenic call: active; positive

## CN(Cc1cccc(Cl)c1)N=O
[2]
  mutagenic call: active; positive
[3]
  mutagenic call: inactive; negative

## CN(N=O)C(=O)Nc1ccccc1
End Point: IN VITRO CHROMOSOMAL ABERRATIONS, Test System: CHINESE HAMSTER V79-E CELLS, Metabolic Activation: NONE
  mutagenic call: active; positive (structural changes)

## CC(C)C[C@H](NC(=O)[C@H](Cc1ccccc1)NC(=O)CNC(=O)CN)C(=O)O (H-GGFL-OH)
[4]
  mutagenic call: inactive; negative
[5]
  mutagenic call: inactive; negative
[1]
  mutagenic call: inactive; negative
[6]
  mutagenic call: inactive; negative
[3]
  mutagenic call: inactive; negative
[7]
  mutagenic call: inactive; negative
[8]
  mutagenic call: inactive; negative
[9]
  mutagenic call: inactive; negative

## Cc1cc(C(=O)NNCc2ccccc2)no1
[4]
  mutagenic call: inactive; negative
[5]
  mutagenic call: inactive; negative
[1]
  mutagenic call: inactive; negative
[6]
  mutagenic call: inactive; negative
[3]
  mutagenic call: inactive; negative
[7]
  mutagenic call: inactive; negative
[8]
  mutagenic call: inactive; negative
[9]
  mutagenic call: inactive; negative

## CC1=CCC(C(C)(C)O)CC1 (configuration not stated)
Test System: AMES SALMONELLA TYPHIMURIUM, Strain/Indicator: TA97A, Metabolic Activation: NONE, Method: STANDARD PLATE
  mutagenic call: inactive; negative
Test System: AMES SALMONELLA TYPHIMURIUM, Strain/Indicator: TA97A, Metabolic Activation: RAT LIVER S-9, AROCLOR 1254, Method: STANDARD PLATE
  mutagenic call: inactive; negative
Test System: AMES SALMONELLA TYPHIMURIUM, Strain/Indicator: TA98, Metabolic Activation: HAMSTER, LIVER, S-9, AROCLOR 1254, Method: STANDARD PLATE
  mutagenic call: inactive; negative
[4]
  mutagenic call: inactive; negative
Test System: AMES SALMONELLA TYPHIMURIUM, Strain/Indicator: TA98, Metabolic Activation: RAT LIVER S-9 AROCLOR 1254, Method: STANDARD PLATE
  mutagenic call: inactive; negative
[5]
  mutagenic call: inactive; negative
Test System: AMES SALMONELLA TYPHIMURIUM, Strain/Indicator: TA100, Metabolic Activation: HAMSTER, LIVER, S-9, AROCLOR 1254, Method: STANDARD PLATE
  mutagenic call: inactive; negative
[1]
  mutagenic call: inactive; negative
Test System: AMES SALMONELLA TYPHIMURIUM, Strain/Indicator: TA100, Metabolic Activation: RAT LIVER S-9, AROCLOR 1254, Method: STANDARD PLATE
  mutagenic call: inactive; negative
[6]
  mutagenic call: inactive; negative
[2]
  mutagenic call: inactive; negative
[3]
  mutagenic call: inactive; negative
[7]
  mutagenic call: inactive; negative
Test System: AMES SALMONELLA TYPHIMURIUM, Strain/Indicator: TA1537, Metabolic Activation: HAMSTER, LIVER, S-9, AROCLOR 1254, Method: STANDARD PLATE
  mutagenic call: inactive; negative
[8]
  mutagenic call: inactive; negative
[9]
  mutagenic call: inactive; negative
Test System: AMES SALMONELLA TYPHIMURIUM, Strain/Indicator: TA1538, Metabolic Activation: HAMSTER, LIVER, S-9, AROCLOR 1254, Method: STANDARD PLATE
  mutagenic call: inactive; negative
Test System: AMES SALMONELLA TYPHIMURIUM, Strain/Indicator: TA1538, Metabolic Activation: NONE, Method: STANDARD PLATE
  mutagenic call: inactive; negative
Test System: AMES SALMONELLA TYPHIMURIUM, Strain/Indicator: TA1538, Metabolic Activation: RAT, LIVER, S-9, AROCLOR 1254, Method: STANDARD PLATE
  mutagenic call: inactive; negative
Test System: MOUSE LYMPHOMA, Strain/Indicator: L5178Y (TK+/TK-), Metabolic Activation: NONE, Method: SUSPENSION/PLATE
  mutagenic call: inactive; negative. reevaluation of results: negative
Test System: MOUSE LYMPHOMA, Strain/Indicator: L5178Y (TK+/TK-), Metabolic Activation: RAT, LIVER, S-9, AROCLOR 1254, Method: SUSPENSION/PLATE
  mutagenic call: inactive; negative. reevaluation of results: negative

## N#Cc1cccc(/C=C/c2ccc(N)cc2)c1
Test System: AMES SALMONELLA TYPHIMURIUM, Strain/Indicator: TA98(1,8-DNP6), Metabolic Activation: NONE, Method: STANDARD PLATE
  mutagenic call: inactive; negative
Test System: AMES SALMONELLA TYPHIMURIUM, Strain/Indicator: TA98(1,8-DNP6), Metabolic Activation: S-9, Method: STANDARD PLATE
  mutagenic call: active; positive
[4]
  mutagenic call: active; positive
Test System: AMES SALMONELLA TYPHIMURIUM, Strain/Indicator: TA98, Metabolic Activation: S-9, Method: STANDARD PLATE
  mutagenic call: active; positive
[1]
  mutagenic call: inactive; negative
Test System: AMES SALMONELLA TYPHIMURIUM, Strain/Indicator: TA100, Metabolic Activation: S-9, Method: STANDARD PLATE
  mutagenic call: active; positive

## CNc1nc2c3cccnc3ccc2n1C
Test System: AMES SALMONELLA TYPHIMURIUM, Strain/Indicator: TA98, Metabolic Activation: RAT, LIVER, S-9, AROCLOR 1254, Method: PREINCUBATION
  mutagenic call: active; positive
Test System: AMES SALMONELLA TYPHIMURIUM, Strain/Indicator: TA100, Metabolic Activation: RAT, LIVER, S-9, AROCLOR 1254, Method: PREINCUBATION
  mutagenic call: active; positive

## OC[C@@H](O)[C@@H](O)[C@H](O)[C@@H](O)CO
End Point: IN VITRO CHROMOSOMAL ABERRATIONS, Test System: CHO-WBL CELLS, Metabolic Activation: NONE
  mutagenic call: active; positive (structural changes); osmolality of solution decisive factor
Test System: AMES SALMONELLA TYPHIMURIUM, Strain/Indicator: TA97A, Metabolic Activation: NONE, Method: PREINCUBATION
  mutagenic call: inactive; negative
Test System: AMES SALMONELLA TYPHIMURIUM, Strain/Indicator: TA97A, Metabolic Activation: RAT, LIVER, S-9, AROCLOR 1254, Method: PREINCUBATION
  mutagenic call: inactive; negative
Test System: AMES SALMONELLA TYPHIMURIUM, Strain/Indicator: TA102, Metabolic Activation: NONE, Method: PREINCUBATION
  mutagenic call: inactive; negative
Test System: AMES SALMONELLA TYPHIMURIUM, Strain/Indicator: TA102, Metabolic Activation: RAT, LIVER, S-9, AROCLOR 1254, Method: PREINCUBATION
  mutagenic call: inactive; negative

## CCCCc1c(N)ccc2ccccc12
[4]
  mutagenic call: inactive; negative
Test System: AMES SALMONELLA TYPHIMURIUM, Strain/Indicator: TA98, Metabolic Activation: RAT LIVER S-9, AROCLOR, Method: STANDARD PLATE
  mutagenic call: active; positive
[1]
  mutagenic call: inactive; negative
Test System: AMES SALMONELLA TYPHIMURIUM, Strain/Indicator: TA100, Metabolic Activation: RAT LIVER S-9, AROCLOR, Method: STANDARD PLATE
  mutagenic call: active; positive
